This is an account of results in ChEMBL document CHEMBL5036334, “Balanced dual acting compounds targeting aromatase and estrogen receptor α as an emerging therapeutic opportunity to counteract estrogen responsive breast cancer” (Eur J Med Chem, 2021).

The structures appear in SMILES notation. Where only a bound is given, the exact number is not on record here.

The subject of test [1] is MCF-10A. Briefly: Antiproliferative activity against human MCF-10A cells assessed as reduction in cell viability after 72 hrs by cell counter method. Type of test: functional, cell-based.
For test [2], the system named is MCF7. The test is described as follows: Antiproliferative activity against human MCF7 cells assessed as reduction in cell viability after 72 hrs by cell counter method. Type of test: functional, cell-based. Particulars: MCF7, 72 h.
The target in test [3] is T1, Aromatase (Homo sapiens, UniProt P11511).
T1 sequence (P11511 whole entry): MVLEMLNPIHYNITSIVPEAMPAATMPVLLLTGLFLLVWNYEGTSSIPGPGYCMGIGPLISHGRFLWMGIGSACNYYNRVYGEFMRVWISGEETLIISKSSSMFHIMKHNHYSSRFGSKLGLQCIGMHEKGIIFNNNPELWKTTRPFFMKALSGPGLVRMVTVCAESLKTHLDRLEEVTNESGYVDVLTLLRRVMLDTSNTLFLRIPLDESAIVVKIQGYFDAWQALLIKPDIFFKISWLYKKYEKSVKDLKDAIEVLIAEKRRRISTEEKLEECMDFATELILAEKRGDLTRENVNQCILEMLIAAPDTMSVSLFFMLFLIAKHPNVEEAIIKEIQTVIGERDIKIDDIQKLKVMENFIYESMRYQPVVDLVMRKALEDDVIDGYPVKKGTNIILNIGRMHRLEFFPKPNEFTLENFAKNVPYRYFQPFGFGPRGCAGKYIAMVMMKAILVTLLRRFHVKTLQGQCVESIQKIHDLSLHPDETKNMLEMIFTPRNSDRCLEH
The test is described as follows: Inhibition of human aromatase assessed as reduction in fluorescence intensity preincubated with NADPH regenerating system for 10 mins followed by substrate addition incubated for 60 mins by fluorescence based microplate reader analysis.

Test [4] addresses T2, Estrogen receptor (Homo sapiens, UniProt P03372).
T2 sequence (P03372 whole entry): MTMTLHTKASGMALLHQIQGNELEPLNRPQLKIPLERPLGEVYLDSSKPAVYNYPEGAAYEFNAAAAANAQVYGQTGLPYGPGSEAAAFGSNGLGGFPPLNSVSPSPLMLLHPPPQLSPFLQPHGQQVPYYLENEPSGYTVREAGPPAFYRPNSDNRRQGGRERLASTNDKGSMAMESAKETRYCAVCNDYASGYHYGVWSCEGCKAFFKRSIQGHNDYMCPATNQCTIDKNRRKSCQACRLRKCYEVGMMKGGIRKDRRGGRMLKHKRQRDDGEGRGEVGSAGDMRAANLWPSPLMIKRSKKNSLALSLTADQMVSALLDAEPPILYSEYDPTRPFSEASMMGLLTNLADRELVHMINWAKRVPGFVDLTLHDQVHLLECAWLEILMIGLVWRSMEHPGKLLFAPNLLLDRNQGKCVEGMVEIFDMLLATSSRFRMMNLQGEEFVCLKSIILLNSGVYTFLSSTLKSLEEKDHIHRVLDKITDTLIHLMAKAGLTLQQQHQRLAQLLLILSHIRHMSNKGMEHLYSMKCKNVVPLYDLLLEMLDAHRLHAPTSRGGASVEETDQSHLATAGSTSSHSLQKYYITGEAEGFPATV
The test is described as follows: Binding affinity to human ERalpha measured after 2 hrs by fluorescence polarization plate reader.

Consider `CC(Cc1cccnc1)=C(c1ccc(O)cc1)c1ccc(O)cc1`, for which the IC50 (usually the concentration that gives 50% inhibition) in test [1] is 58.7 µM; in test [2], 41.2 µM; in test [3] it was 0.861 µM; in test [4], 1.77 µM.
In the same order, the values of `CCC(Cn1ccnc1)=C(c1ccc(O)cc1)c1ccc(O)cc1` are 34.7 µM, 24.3 µM, 0.035 µM and 1.8 µM.
Take `CCC(CCc1c[nH]cn1)=C(c1ccc(O)cc1)c1ccc(O)cc1`: the IC50 in test [1] is greater than 100 µM; in test [2], 37.1 µM; in test [3], 0.052 µM; in test [4] it was 0.197 µM.
Regarding `CCC(=C(c1ccc(O)cc1)c1ccc(O)cc1)c1c[nH]cn1`, the concentration for half-maximal inhibition (IC50) in test [1] was greater than 100 µM; in test [2] it was 60 µM; in test [3] it was 0.952 µM; in test [4], 1.07 µM.
For `CC(=C(c1ccc(O)cc1)c1ccc(O)cc1)c1cccnc1` the same measures were 41.7 µM, 5.3 µM, greater than 10 µM and 0.076 µM.
Consider `CCC(Cc1cccnc1)=C(c1ccc(O)cc1)c1ccc(O)cc1`, for which the IC50 in test [1] was greater than 100 µM; in test [2], 27.6 µM; in test [3], 0.023 µM; in test [4], 0.019 µM.
For the compound `CC(CCc1c[nH]cn1)=C(c1ccc(O)cc1)c1ccc(O)cc1`, the IC50 in test [1] was found to be 50.4 µM; in test [2], 39.8 µM; in test [3], 0.063 µM; in test [4] it was 1.74 µM.
In the case of `CCC(=C(c1ccc(O)cc1)c1ccc(O)cc1)c1cccnc1`, the half-maximal inhibitory concentration (IC50) in test [1] was 17 µM; in test [2], 10 µM; in test [3], 1.25 µM; in test [4] it was greater than 10 µM.
As for `CC(=C(c1ccc(O)cc1)c1ccc(O)cc1)c1c[nH]cn1`, the IC50 in test [1] is greater than 100 µM; in test [2] it was 58 µM; in test [3] it was 0.596 µM; in test [4], 0.223 µM.
Turning to `CC(Cn1ccnc1)=C(c1ccc(O)cc1)c1ccc(O)cc1`, the IC50 in test [1] was 52.5 µM; in test [2] it was 37 µM; in test [3], 1 µM; in test [4], 4.95 µM.
In the case of `CCC(CCc1cccnc1)=C(c1ccc(O)cc1)c1ccc(O)cc1`, the IC50 in test [1] was found to be 20 µM; in test [2], 42.1 µM; in test [3] it was 0.9 µM; in test [4], 0.033 µM.
For the compound `CC(CCc1cccnc1)=C(c1ccc(O)cc1)c1ccc(O)cc1`, the IC50 in test [1] is greater than 100 µM; in test [2], greater than 100 µM; in test [3] it was 3.24 µM; in test [4], 0.313 µM.
Regarding `CC/C(=C(\c1ccc(O)cc1)c1ccc(OCCNC)cc1)c1ccccc1` [ENDOXIFEN], the IC50 in test [1] is greater than 10 µM; in test [2], 0.1 µM; in test [3], greater than 10 µM; in test [4], 0.03 µM.
Take `N#Cc1ccc(C(c2ccc(C#N)cc2)n2cncn2)cc1` [LETROZOLE]: the 50% inhibitory concentration (IC50) is greater than 10 µM in test [1], 4.1 µM in test [2] and greater than 10 µM in test [4].
